Data published in article PMC10796634, “Discovery of plant chemical defence mediated by a two-component system involving β-glucosidase in Panax species” (Nature Communications, 2024).

Tested on: PnGH1
Assay: HPLC quantification of product Fd, Michaelis-Menten fit
Assay type: biochemical, Panax notoginseng
Conditions: pH 5.0 (50 mM Tris-HCl), 60 °C, 30 min, 30–8000 µM Rb3

CC(C)=CCC[C@](C)(O[C@@H]1O[C@H](CO[C@@H]2OC[C@@H](O)[C@H](O)[C@H]2O)[C@@H](O)[C@H](O)[C@H]1O)[C@H]1CC[C@]2(C)[C@@H]1[C@H](O)C[C@@H]1[C@@]3(C)CC[C@H](O[C@@H]4O[C@H](CO)[C@@H](O)[C@H](O)[C@H]4O[C@@H]4O[C@H](CO)[C@@H](O)[C@H](O)[C@H]4O)C(C)(C)[C@@H]3CC[C@]12C [compound 4, Rb3]
Km: 677 ± 38.5 µM
